The values below come from US20220389013A1, “PYRIDOPYRIMIDINONE COMPOUNDS AND APPLICATIONS THEREOF” (BeBetter Med Inc., priority 2020, published 2022).

In one data set the test system is mouse tumors. The settings on record: mouse experiments, alone or combined; cited from earlier work.
A further data set concerns Caco-2 cell. In words: Caco-2 cell transmembrane transport experiment. The following applies: 10 μM, pH 7.4, 37° C., 90 min. In general terms: Caco-2 cells form a polarised layer with tight junctions and transporters.
Data set [1] can be described thus: Caco-2 cell transmembrane transport experiment. The following applies: human; for Papp B→A at 90 min, 10 μM: basolateral to apical.
Data set [2] concerns non-small cell lung cancer (NSCLC). The following applies: cited from earlier work.
Data set [3] deals with H358 xenograft tumor. In words: H358 human non-small cell lung cancer subcutaneous mouse xenograft model, anticancer activity. The class given is in vivo, BALB/c nude mice. The settings on record: 100 mg/kg, po, qd, 26 days. As to the method: (§1) In this experiment, the anticancer activities of compounds 73-1 and 90-1 in the subcutaneous tumor model of H358 human non-small cell lung cancer xenograft mice, and the dose-response relationship of compound 73-1 in inhibiting the growth of H358 xenograft tumors were investigated. […] When H358 cells were cultured to a sufficient number, cells were collected. […] Vernier calipers were used to measure the size of the tumor. The formula for calculating the tumor volume is: tumor volume=(length×width^2)/2, and the formula for calculating the relative tumor proliferation rate T/C value is: T/C (%)=100×ΔT/ΔC (ΔT>0) or T/T (%)=100×ΔT/T0 (ΔT<0). ΔT is the difference of tumor volume in the treatment group, ΔC is the difference of tumor volume in the vehicle control group, and T0 is the tumor volume in the treatment group before administration.
The dosage of the all groups, except the vehicle control group, was 100 mg/kg, 10 mL/kg orally administered by gavage, once a day. […] All the groups were administered continuously for 26 days.

For data set [4], the system named is MIA Paca2 T2 xenograft tumor. In words: MIA Paca2 T2 human pancreatic cancer xenograft mouse subcutaneous model. The following applies: for effect on tumor (in words): 28 days oral, 73-1 50 mg/kg bid, AMG510 100 mg/kg qd. In general terms: Xenograft models place foreign cells or tissue in a host animal.
A short description of data set [5]: Pharmacokinetic (PK) experiment in rats by gavage. The settings on record: rat, plasma, po, male SD rats, 20 mg/kg; for AUC(0-t): read-out: AUC0-24. It is filed as in vivo.
In the next data set the test system is MIA-Paca2 (KRAS G12C). In words: Tumor cell proliferation inhibition assay (CellTiter-Glo), MIA-Paca2. The class given is cell-based, Human. The settings on record: 72 hours, 10% fetal bovine serum. The essentials: (§2)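 Growth was read as ATP by CellTiter-Glo luminescence, with inhibition normalised to DMSO (max) and medium-only (min) wells. IC50 came from sigmoidal dose-response fits.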
For orientation: In ATP-based viability assays light output follows the ATP content of the culture.

In data set [6] the test system is H358 xenograft tumor. In words: H358 xenograft model, dose-response of compound 73-1. It is filed as in vivo, BALB/c nude mice. The following applies: po, qd, 28 days. As to the method: as §1
In the dose-response study of compound 73-1 inhibiting the growth of H358 xenograft tumors, when the H358 tumor volume reached an average of about 183 mm^3, the animals were respectively divided into different treatment groups, including vehicle (30% sulfobutyl-β-Cyclodextrin) control group, compound 73-1 orally administered group with doses of 12.5 mg/kg, 25 mg/kg, 50 mg/kg, and 100 mg/kg (n=8/group), administered once every day. […] All the groups were administered continuously for 28 days with 10 mL/kg oral administration.

The next data set has as its system H23 (KRAS G12C). Nature of the data set: Tumor cell proliferation inhibition assay (CellTiter-Glo), H23. The class given is cell-based, Human. The settings on record: Homo sapiens, 72 h, 10% fetal bovine serum. In a few lines: as §2
For the next data set, the target named is T1, KRAS-G12C/SOS1 (Homo sapiens, UniProt P01116, G12C).
T1 construct: purchased Cisbio #63ADK000CB16PEG
T1 sequence (P01116 1-188 isoform P01116-2 G12C): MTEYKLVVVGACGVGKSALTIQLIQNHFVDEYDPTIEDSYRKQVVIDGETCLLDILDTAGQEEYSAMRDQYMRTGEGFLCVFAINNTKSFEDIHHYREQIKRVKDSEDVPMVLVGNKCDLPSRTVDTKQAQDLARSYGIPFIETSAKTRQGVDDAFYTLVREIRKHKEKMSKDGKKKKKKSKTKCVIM
In words: HTRF KRAS-G12C/SOS1 binding assay. The settings on record: 2 hours room temperature.

The next data set has as its system H358 (KRAS G12C). In words: Tumor cell proliferation inhibition assay (CellTiter-Glo), H358. The class given is cell-based, Human. The following applies: Homo sapiens, NCI-H358, 72 h, 10% fetal bovine serum. The essentials: as §2
Where [7] appears, read: Caco-2, pH 7.4, Papp A-B Sample_01, 10 μM, pH 7.4, 37° C., 90 min, apical to basolateral.
Setting [8] is: Caco-2, pH 7.4, Papp A-B Sample_02, 10 μM, pH 7.4, 37° C., 90 min, apical to basolateral.
Setting [9] is: Caco-2, pH 7.4, Papp A-B mean value, 10 μM, pH 7.4, 37° C., 90 min, apical to basolateral.
[10] abbreviates: Caco-2, pH 7.4, Papp B-A Sample_01, 10 μM, pH 7.4, 37° C., 90 min.
Where [11] appears, read: Caco-2, pH 7.4, Papp B-A Sample_02, 10 μM, pH 7.4, 37° C., 90 min.
The mark [12] stands for this setting: Caco-2, pH 7.4, Papp B-A mean value, 10 μM, pH 7.4, 37° C., 90 min.
The mark [13] stands for this setting: 13 evaluable patients, highest dose of 960 mg.

pIC50: −log10 of the molar value. Like-named read-outs stand apart in the source and are kept apart here.

The term Papp A→B denotes the apparent permeability from the apical to the basolateral side of a cell layer. Broadly, the Papp B→A is how fast a substance crosses the layer from the basolateral side. A word on the AUC(0-inf): it is the area under the concentration-time curve extrapolated to infinity. The low end stands for low exposure, the high end for high exposure. The term Cmax denotes the highest concentration seen after dosing. The Tmax is the time from dosing to the highest level. In general, half-life refers to the time in which the quantity being followed falls by half. Higher therefore signals slow decline. Regarding `C=CC(=O)N1CCN(c2nc(=O)n(-c3c(C)ccnc3C(C)C)c3nc(-c4c(O)cccc4F)c(F)cc23)[C@@H](C)C1` (atropisomer, axis not shown) [AMG510, reference compound], the “mice whose tumor completely disappeared” value with mouse tumors was 10%. In the data set with Caco-2 cell, the “efflux rate Papp(B-A)/Papp(A-B)” value was 6.22. The same compound displayed a Papp A→B at 90 min, 10 μM in data set [1] (setting [7]) of 5.83 ×10⁻⁶ cm/s. Besides, the Papp A→B at 90 min, 10 μM in data set [1] (setting [8]) is 4.94 ×10⁻⁶ cm/s. The same compound returned a Papp A→B at 90 min, 10 μM in data set [1] (setting [9]) of 5.39 ×10⁻⁶ cm/s. The Papp B→A at 90 min, 10 μM in [1] (setting [10]) was found to be 27.9 ×10⁻⁶ cm/s. The same compound yielded a Papp B→A at 90 min, 10 μM in [1] (setting [11]) of 39.1 ×10⁻⁶ cm/s. The same compound displayed a Papp B→A at 90 min, 10 μM in data set [1] (setting [12]) of 33.5 ×10⁻⁶ cm/s. In data set [2] (setting [13]), the DCR is given as 100%, the ORR was 54% and the “partial response (PR)” value is on record as 54%. In [2] (23 evaluable NSCLC patients), the “disease control rate (DCR)” value is reported as 96%, the “objective response rate (ORR)” value was 48%, the “partial response (PR)” value was 48% and the “progressive disease (PD)” value is on record as 4%. Besides, in data set [2] (phase I patients), the “dose-limiting toxicity and adverse reactions above grade IV” value was “No dose-limiting toxicity (DLT) and drug-related adverse reactions above grade IV were found”; the “tolerability (in words)” value is listed as “well tolerated”. In addition, in the data set on H358 xenograft tumor [3], the “Changes of body weight (%)” value was found to be 16.4%, the “effect on tumor (in words)” value was “shrink the tumor” and the “tumor suppressor T/C value (%)” value was −93.8%. Further, the “Changes of body weight (%)” value in [4] (100 mg/kg, po, qd, 28 days) is 13.8%. Also, the “effect on tumor (in words)” value in [4] is “shrink the tumor”. In data set [5], the AUC(0-inf) came to 3430 ng·h/mL, the Cmax stood at 3250 ng/mL, the Tmax is 0.33 h and the half-life was 6.76 h. Besides, in [5], the AUC(0-t) is 3370 ng·h/mL.

Usually pIC50 stands for −log10 of the IC50, conventionally taken in molar units. The low end stands for a large IC50, the high end for a small IC50. A word on the efflux ratio: it is a quotient of directional permeabilities that is used to spot active efflux. In general, IC50 refers to the concentration needed to halve the response being measured. Read a low IC50 as inhibition by little substance. Regarding `C=CC(=O)N1CCN(c2nc(=O)n(-c3c(C)ccnc3C(C)C)c3nc(-c4c(F)ccc5ccoc45)c(Cl)cc23)[C@@H](C)C1` (single isomer, unassigned) [Compound 73-1], the pIC50 with MIA-Paca2 (KRAS G12C), in the data set on H23 (KRAS G12C) and with H358 (KRAS G12C) was over 8.00 in each case. Moreover, the “Antitumor activity T/C value (%)” value in the data set on H358 xenograft tumor [6] (12.5 mg/kg) was −68.5%; in the data set with H358 xenograft tumor [6] (25 mg/kg), −74.0%; with H358 xenograft tumor [6] (50 mg/kg), −93.5%; in the data set with H358 xenograft tumor [6] (100 mg/kg), −96.6%; in data set [4] (50 mg/kg, po, bid, 28 days) it was −100%. The “Changes of body weight (%)” value with H358 xenograft tumor [6] (12.5 mg/kg) is given as −0.2%; with H358 xenograft tumor [6] (25 mg/kg), −0.1%; in the data set with H358 xenograft tumor [6] (50 mg/kg), 2.2%; with H358 xenograft tumor [6] (100 mg/kg), 1.9%; in the data set with H358 xenograft tumor [3], 10.1%; in data set [4] (50 mg/kg, po, bid, 28 days), 10.2%. In addition, the “clinical symptoms and body weight (in words)” value in the data set on H358 xenograft tumor [6] (12.5, 25, 50 and 100 mg/kg, versus vehicle control) is “no significant clinical symptoms and no significant changes in body weight”. For the same compound, in the data set on H358 xenograft tumor [6] (12.5-100 mg/kg), the “effect on tumor growth (in words)” value is “inhibited the growth of H358 tumor in a dose-dependent manner and could cause partial disappearance of tumor”. Moreover, the “tolerability (in words)” value in the data set on H358 xenograft tumor [6] (12.5-100 mg/kg) was “well tolerated”. Further, the efflux ratio at 90 min, 10 μM in data set [1] (Caco-2, pH 7.4) was determined as 1.12. Further, the Papp A→B at 90 min, 10 μM in data set [1] (setting [7]) was 16 ×10⁻⁶ cm/s; in data set [1] (setting [8]) it was 20.8 ×10⁻⁶ cm/s; in data set [1] (setting [9]), 18.4 ×10⁻⁶ cm/s; in data set [1] (Caco-2, pH 7.4, apparent permeability coefficient Papp A-B, Caco-2), over 10 ×10⁻⁶ cm/s. The Papp B→A at 90 min, 10 μM in data set [1] (setting [10]) amounted to 17.2 ×10⁻⁶ cm/s; in data set [1] (setting [11]) it was 24 ×10⁻⁶ cm/s; in [1] (setting [12]), 20.6 ×10⁻⁶ cm/s. Besides, the “effect on tumor (in words)” value (with H358 xenograft tumor [3]; in data set [4]) was “cause the tumor to disappear completely” throughout. In addition, in the data set with H358 xenograft tumor [3], the “tumor suppressor T/C value (%)” value is −100.0%. This compound came in with an IC50 at KRAS-G12C/SOS1 of under 50 nM. The same compound gave an AUC(0-inf) in data set [5] of 4320 ng·h/mL. The compound also gave a Cmax in data set [5] of 1750 ng/mL. Moreover, the Tmax in data set [5] was 0.67 h. In data set [5], this compound gave a half-life of 3.23 h. Further, in [5], the AUC(0-t) came to 4300 ng·h/mL.

For the compound pembrolizumab: PD-1 antibody, the “mice whose tumor completely disappeared” value with mouse tumors is 10%.
